± gives the standard deviation of the averaged measurements.
Columns and labels:
Assay in all cases: level (log10 ratio to DMSO vehicle control); higher = higher biomarker level / cell amount than vehicle control
Details in all cases: in DMSO
[1] = compound: O=C(O)C(F)(F)C(F)(F)C(F)F [4H-Perfluorobutanoic acid]
Description: (§1)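 BioMAP Diversity Plus panel of 12 human primary cell co-culture systems (3C, 4H, LPS, SAg, BT, BF4T, BE3C, CASM3C, HDF3CGF, KF3CT, MyoF, Mphg). Compounds were added 1 h before stimulation and left for 24 h (MyoF 48 h; BT 72 h for soluble read-outs or 6 d for IgG). Biomarkers were read by ELISA, cytotoxicity by SRB, PBMC viability and proliferation by Alamar Blue. Each well value was divided by the mean of 8 DMSO control wells on the same plate and log10 transformed; duplicate blinded samples were tested at 4 concentrations.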

[2] = compound: NCC(F)(F)C(F)(F)C(F)(F)C(F)(F)C(F)(F)C(F)(F)C(F)(F)F [1H,1H-Perfluorooctylamine]
Description: as §1

[3] = compound: FC(F)(F)C(F)(F)C(F)(F)C(F)(F)C(F)(F)CCI [1-Iodo-1H,1H,2H,2H-perfluoroheptane]
Description: as §1

[4] = compound: OCC(F)(F)OC(F)(F)C(F)(F)OC(F)(F)CO [1H,1H,8H,8H-Perfluoro-3,6-dioxaoctane-1,8-diol]
Description: as §1

[5] = compound: C=C(C)C(=O)OCCC(F)(F)C(F)(F)C(F)(F)C(F)(F)C(F)(C(F)(F)F)C(F)(F)F [(Perfluoro-5-methylhexyl)ethyl 2-methylprop-2-enoate]
Description: as §1

Perfluoropentanoic acid = compound: O=C(O)C(F)(F)C(F)(F)C(F)(F)C(F)(F)F [Perfluoropentanoic acid]
Description: as §1

Perfluoro-1-iodohexane = compound: FC(F)(F)C(F)(F)C(F)(F)C(F)(F)C(F)(F)C(F)(F)I [Perfluoro-1-iodohexane]
Description: as §1

Test System	level (log10) ([1]; 6700 nM)	level (log10) ([1]; 20000 nM)	level (log10) ([1]; 60000 nM)	level (log10) ([2]; 6700 nM)	level (log10) ([2]; 20000 nM)	level (log10) ([2]; 60000 nM)	level (log10) ([3]; 6700 nM)	level (log10) ([3]; 20000 nM)	level (log10) ([3]; 60000 nM)	level (log10) ([4]; 6700 nM)	level (log10) ([4]; 20000 nM)	level (log10) ([4]; 60000 nM)	level (log10) ([5]; 6700 nM)	level (log10) ([5]; 20000 nM)	level (log10) (Perfluoropentanoic acid; 6700 nM)	level (log10) (Perfluoropentanoic acid; 20000 nM)	level (log10) (Perfluoropentanoic acid; 60000 nM)	level (log10) (Perfluoro-1-iodohexane; 6700 nM)	level (log10) (Perfluoro-1-iodohexane; 20000 nM)	level (log10) (Perfluoro-1-iodohexane; 60000 nM)
LPS:CD142/Tissue Factor	-0.0205 ± 0.032	0.015 ± 0.033	0.0185 ± 0.0092	0.02 ± 0.095	0.005 ± 0.054	-0.0475 ± 0.073	0.0045 ± 0.018	0.0285 ± 0.016	0.038 ± 0.0085	-0.006 ± 0.014	-0.0155 ± 0.021	-0.0135 ± 0.0035	0.032 ± 0.014	0.006 ± 0.014	0.006 ± 0.0099	-0.007 ± 0.051	0.031 ± 0.099	-0.018 ± 0.038	0.0045 ± 0.0021	0.0045 ± 0.011
3C:CXCL9/MIG	0.005 ± 0.0042	0.0035 ± 0.013	0.012 ± 0.0014	0.0025 ± 0.0021	-0.021 ± 0.0042	-0.0205 ± 0.005	-0.0035 ± 0.005	-0.011 ± 0.0028	-0.0075 ± 0.0064	-0.0025 ± 0.005	-0.004 ± 0.0071	0.0015 ± 0.011	-0.001 ± 0.011	0.0045 ± 0.0035	-0.0085 ± 0.018	-0.0125 ± 0.03	0.0095 ± 0.028	0.0045 ± 0.025	0.007 ± 0.014	0.0075 ± 0.029
BE3C:EGFR	-0.0135 ± 0.011	-0.0085 ± 0.0064	0.032 ± 0.025	-0.005 ± 0.0099	-0.018 ± 0.0057	0.003 ± 0.0014	0.0195 ± 0.0078	0.0085 ± 0.019	0.009 ± 0.028	0.0085 ± 0.012	-0.0025 ± 0.021	-0.0095 ± 0.0064	-0.0065 ± 0.011	0.009 ± 0.014	-0.0025 ± 0.021	-0.011 ± 0.0057	0.004 ± 0.018	0.0095 ± 0.00071	-0.0055 ± 0.0021	0.0285 ± 0.013
SAg:CCL2/MCP-1	-0.011 ± 0.038	-0.0085 ± 0.04	-0.0065 ± 0.081	-0.0255 ± 0.012	-0.0145 ± 0.0064	-0.0035 ± 0.025	-0.005 ± 0.0099	-0.0175 ± 0.0035	-0.006 ± 0.038	0.0085 ± 0.005	-0.0105 ± 0.012	0.011 ± 0.037	-0.014 ± 0.018	0.0065 ± 0.033	0.0085 ± 0.021	-0.0205 ± 0.011	0.023 ± 0.031	0.006 ± 0.018	-0.0045 ± 0.021	0.005 ± 0.05
BF4T:MMP-3	-0.0025 ± 0.012	-0.014 ± 0.02	-0.007 ± 0.023	-0.0075 ± 0.042	-0.0185 ± 0.044	0.0095 ± 0.0078	-0.006 ± 0.034	-0.0015 ± 0.0078	0.0545 ± 0.021	-0.01 ± 0.045	-0.0285 ± 0.057	-0.0095 ± 0.037	-0.0975 ± 0.022	-0.057 ± 0.041	-0.015 ± 0.011	-0.0145 ± 0.0092	-0.0045 ± 0.04	0.004 ± 0.0057	0.017	0.0635 ± 0.035

— the supplement of paper PMC10331698
